This passage reports IC50, Activity and Ki results from ChEMBL document CHEMBL1255445, “Evaluation of nucleoside hydrolase inhibitors for treatment of African trypanosomiasis” (Antimicrob Agents Chemother, 2010).

A word on the IC50: it is the midpoint of a concentration-inhibition curve. In general, Ki refers to a dissociation constant, usually derived from enzyme kinetics or from competition with a known ligand. Read a low Ki as higher affinity.

Activity calls are given as the source filed them.

Experiment [1] in a line: Cytotoxicity against human MRC5 SV2 cells after 48 hrs. The following applies: MRC5, 48 h. It is filed as cell-based.
The next experiment deals with Leishmania infantum. Briefly: Antileishmanial activity against Leishmania infantum MHOM/MA/67/ITMAP263 intracellular amastigotes assessed as reduction in parasite growth after 3 days by fluorometrically. It is filed as functional, organism-based.
The test system of experiment [2] is Trypanosoma brucei brucei. Briefly: Antitrypanosomal activity against suramin sensitive Trypanosoma brucei brucei Lister 427 assessed as reduction in parasite growth after 3 days by fluorometrically. It is filed as functional, organism-based. The following applies: Lister 427, 72 h.
Experiment [3] in a line: Inhibition of Trypanosoma vivax Inosine-adenosine-guanosine-nucleoside hydrolase.
A further experiment relates to Plasmodium falciparum. Briefly: Antiparasitic activity against chloroquine-sensitive Plasmodium falciparum Ghana assessed as reduction in parasite growth after 3 days by fluorimetry. The experiment is classed as functional, organism-based.
Experiment [4] in a line: Inhibition of human purine nucleoside phosphorylase.
The nature of experiment [5]: Inhibition of Trypanosoma brucei brucei Inosine guanosine nucleoside hydrolase.
Experiment [6] in a line: Inhibition of Trypanosoma brucei brucei inosine-adenosine-guanosine nucleoside hydrolase (IAG-NH).
A further experiment relates to Trypanosoma cruzi. Briefly: Antitrypanosomal activity against Trypanosoma cruzi Tulahuen CL2 s-galactosidase strain assessed as reduction in parasite growth after 3 days by fluorometrically. The experiment is classed as functional, organism-based.
Experiment [7] in a line: Inhibition of Trypanosoma brucei brucei Lister 427 Nucleoside transporter P1 by scintillation counting.
Experiment [8] concerns Trypanosoma brucei brucei. Briefly: Antitrypanosomal activity against suramin sensitive Trypanosoma brucei brucei Lister 427 assessed as parasite killing at 1 uM after 24 hrs. The experiment is classed as functional, organism-based.
The subject of experiment [9] is Trypanosoma brucei rhodesiense. Briefly: Antitrypanosomal activity against Trypanosoma brucei rhodesiense assessed as reduction in parasite growth after 3 days by fluorometrically. The experiment is classed as functional, organism-based. The note with it: 72 h.
The subject of experiment [10] is Trypanosoma brucei brucei. Briefly: Antitrypanosomal activity against suramin sensitive Trypanosoma brucei brucei Lister 427 infected in Swiss Webster mouse assessed as mouse survival at 50 mg/kg treated 1 day po and for 4 days in ip measured on 21 days after infectio. It is filed as functional.
Experiment [11] in a line: Inhibition of Trypanosoma brucei brucei Lister 427 Nucleoside/nucleobase transporter P2 transporter by scintillation counting.
For experiment [12], the system named is Trypanosoma brucei brucei. Briefly: Antitrypanosomal activity against suramin sensitive Trypanosoma brucei brucei Lister 427 infected in Swiss Webster mouse assessed as parasite clearance in blood at 50 mg/kg treated orally for 1 day followed by intraperitoneally for 4 days measured on 21 days post-infection. It is filed as functional, organism-based. Also noted: dose 50 mg/kg.

Experiment [13] has as its system Trypanosoma brucei brucei. Briefly: Antitrypanosomal activity against suramin sensitive Trypanosoma brucei brucei Lister 427 assessed as parasite killing at 10 uM after 48 hrs. The experiment is classed as functional.
The test system of experiment [14] is Trypanosoma brucei brucei. Briefly: Antitrypanosomal activity against suramin sensitive Trypanosoma brucei brucei Lister 427 infected in Swiss Webster mouse assessed as parasite clearance in blood at 50 mg/kg treated orally for 1 day followed by intraperitoneally for 4 days measured on 14 days post-infection. The experiment is classed as functional, organism-based. Also noted: dose 50 mg/kg.

The nature of experiment [15]: Inhibition of Trypanosoma brucei brucei Lister 427 H2 transporter by scintillation counting.
The test system of experiment [16] is Trypanosoma brucei brucei. Briefly: Antitrypanosomal activity against suramin sensitive Trypanosoma brucei brucei Lister 427 assessed as reduction in parasite growth at > 5 uM by Alamar blue assay. The experiment is classed as functional, organism-based. In general terms: The colour change of resazurin is a common sign of viable cells or microbes.
Experiment [17] deals with Trypanosoma brucei brucei. Briefly: Antitrypanosomal activity against suramin sensitive Trypanosoma brucei brucei Lister 427 assessed as reduction in viability and mortality up to 20 uM over 7 hrs by in vitro lysis assay. It is filed as functional, organism-based.
For experiment [18], the system named is Trypanosoma brucei brucei. Briefly: Antitrypanosomal activity against suramin sensitive Trypanosoma brucei brucei Lister 427 assessed as parasite killing at 0.25 uM within 5 hrs. The experiment is classed as functional, organism-based.
The subject of experiment [19] is Trypanosoma brucei brucei. Briefly: Antitrypanosomal activity against suramin sensitive Trypanosoma brucei brucei Lister 427 infected in Swiss Webster mouse assessed as parasite clearance in blood at 50 mg/kg treated orally for 1 day followed by intraperitoneally for 4 days measured on 10 days post-infection. The experiment is classed as functional, organism-based. Further details: dose 50 mg/kg.

As to `OC[C@@H]1[C@@H](O)[C@@H](O)CN1Cc1c[nH]c2c(O)ncnc12`, the IC50 in [1] and in experiment [2] was more than 64 µM each time. In addition, the result in the experiment with Leishmania infantum, in the experiment on Plasmodium falciparum and in the experiment with Trypanosoma cruzi was inactive. Moreover, the Ki in experiment [3] was 0.0044 µM; in experiment [4], 0.0058 µM; in experiment [5], 138 µM; in [6], 0.03 µM; in experiment [7], more than 1000 µM.

As to `OC[C@@H]1[C@@H](O)[C@@H](O)CN1Cc1csc2cncnc12`, the result in the experiment with Leishmania infantum, with Plasmodium falciparum and with Trypanosoma cruzi was inactive. Also, in experiment [2], the IC50 was more than 64 µM. Further, the figures for the Ki in experiment [3] and in experiment [4] were 0.042 µM and more than 1000 µM, respectively.

`COc1ccnc2c(CN3C[C@H](O)[C@H](O)[C@H]3CO)cccc12`: the IC50 in experiment [1] and in experiment [2] was more than 64 µM each time. Further, the outcome with Leishmania infantum, with Plasmodium falciparum and with Trypanosoma cruzi was inactive. In addition, the Ki is 0.029 µM in experiment [3] and more than 1000 µM in experiment [4].

Take `OC[C@@H]1[C@@H](O)[C@@H](O)CN1Cc1cccc2cncnc12`: the IC50 in experiment [1] and in experiment [2] was more than 64 µM throughout. The outcome in the experiment on Leishmania infantum, in the experiment on Plasmodium falciparum and in the experiment on Trypanosoma cruzi was inactive. The Ki in experiment [3] was 0.058 µM; in experiment [4] it was more than 1000 µM.

As for `Nc1ncnc2c(CN3C[C@H](O)[C@H](O)[C@H]3CO)cccc12`, the outcome in the experiment on Leishmania infantum, in the experiment on Plasmodium falciparum and in the experiment on Trypanosoma cruzi was inactive. Also, in experiment [2], the IC50 was more than 64 µM. Moreover, the Ki in experiment [3] was 0.015 µM; in experiment [4], more than 1000 µM.

Consider `Nc1ncnc2c(C3N[C@H](CO)[C@@H](O)[C@H]3O)c[nH]c12` (some centres not stated) [IMMUCILLIN A], for which the IC50 in experiment [1] and in experiment [2] was more than 64 µM each time. In addition, the outcome in the experiment with Leishmania infantum, in the experiment with Plasmodium falciparum and in the experiment with Trypanosoma cruzi was inactive. Moreover, the Ki in experiment [3] is 0.0062 µM; in [4], more than 10 µM; in experiment [5], 0.0044 µM; in experiment [6] it was 0.0009 µM.

With `O=c1[nH]cnc2c([C@@H]3N[C@H](CO)[C@@H](O)[C@H]3O)c[nH]c12` [FORODESINE], the IC50 in experiment [1] and in experiment [2] was more than 64 µM each time. Besides, the result in the experiment with Leishmania infantum, in the experiment on Plasmodium falciparum and in the experiment on Trypanosoma cruzi was inactive. In addition, the results for the Ki in experiment [3], in [5] and in experiment [6] were 0.0062 µM, 0.009 µM and 0.024 µM, respectively.

For the compound `O=c1[nH]cnc2c(CN3C[C@H](O)[C@H](O)[C@H]3CO)cccc12`, the result in the experiment on Leishmania infantum, in the experiment on Plasmodium falciparum and with Trypanosoma cruzi was inactive. Further, the IC50 in [2] is more than 64 µM. In addition, the Ki in experiment [3] was 0.11 µM; in experiment [4] it was more than 1000 µM.

In the case of `Nc1ncnc2c(CN3C[C@H](O)[C@H](O)[C@H]3CO)c[nH]c12`, the result in experiment [8], in [12], in experiment [14], in experiment [16], in [18] and in [19] was Active. In addition, the values for the 50% inhibitory concentration (IC50) in [1], in [9] and in experiment [2] were more than 64 µM, 0.26 µM and 0.49 µM, respectively. In addition, the outcome (in the experiment with Leishmania infantum; with Plasmodium falciparum; in experiment [17]; in the experiment on Trypanosoma cruzi) was inactive. Further, the Activity in [10] and in experiment [13] was 75% each time. Also, the Ki in [11] stood at 8.2 µM; in experiment [3], 0.0041 µM; in experiment [4], 22.5 µM; in [15], 590 µM; in [5], 32 µM; in [6], 0.018 µM. In experiment [7], the Ki came to 360 µM.

For `OC[C@@H]1[C@@H](O)[C@@H](O)CN1Cc1cccc2cccnc12`, the IC50 in experiment [1] and in experiment [2] was more than 64 µM in each case. The outcome in the experiment with Leishmania infantum, with Plasmodium falciparum and in the experiment with Trypanosoma cruzi was inactive. Besides, the Ki in experiment [3] is 0.011 µM; in [4] it was more than 1000 µM; in [5] it was 11 µM; in experiment [6], 0.446 µM.

Take `O=c1cc[nH]c2c(CN3C[C@H](O)[C@H](O)[C@H]3CO)cccc12`: the result in the experiment on Leishmania infantum, with Plasmodium falciparum and in the experiment on Trypanosoma cruzi was inactive. In [2], the IC50 is more than 64 µM. Moreover, the Ki in [3] was 13.1 µM; in experiment [4] it was more than 500 µM.

Consider `Nc1nc2c(CN3C[C@H](O)[C@H](O)[C@H]3CO)cccc2s1`, for which the half-inhibitory concentration (IC50) in experiment [1] and in [2] was more than 64 µM in each case. Moreover, the outcome in the experiment with Leishmania infantum, in the experiment on Plasmodium falciparum and in the experiment with Trypanosoma cruzi was inactive. Further, the Ki was 0.04 µM in experiment [3]; more than 1000 µM in experiment [4]; 14 µM in experiment [5]; 0.56 µM in experiment [6]; 810 µM in [7].

With `O=c1[nH]cnc2c(CN3C[C@H](O)[C@H](O)[C@H]3CO)csc12`, the IC50 in experiment [1] is more than 64 µM; in experiment [2], more than 34 µM. For the same compound, the result in the experiment on Leishmania infantum, in the experiment on Plasmodium falciparum and in the experiment with Trypanosoma cruzi was inactive. Also, the Ki in experiment [3] amounted to 0.02 µM; in experiment [4], 77.6 µM; in [5] it was 120 µM; in experiment [6], 0.19 µM; in experiment [7], 300 µM.

With `OC[C@@H]1[C@@H](O)[C@@H](O)CN1Cc1cccc2c(Cl)ccnc12`, the outcome in the experiment on Leishmania infantum, in the experiment on Plasmodium falciparum and in the experiment on Trypanosoma cruzi was inactive. The IC50 in experiment [2] was 25 µM. The Ki in [3] is 0.014 µM; in experiment [4], more than 1000 µM.

As to `Nc1ccnc2c(CN3C[C@H](O)[C@H](O)[C@H]3CO)cccc12`, the result with Leishmania infantum, with Plasmodium falciparum and in the experiment on Trypanosoma cruzi was inactive. Further, the IC50 in [2] was more than 64 µM. In addition, the Ki in experiment [3] was 0.05 µM; in experiment [4], more than 1000 µM.

As to `COc1cccc2c(CN3C[C@H](O)[C@H](O)[C@H]3CO)c[nH]c12`, the outcome in the experiment with Leishmania infantum, in the experiment with Plasmodium falciparum and with Trypanosoma cruzi was inactive. Besides, in experiment [2], the IC50 was more than 64 µM. For the same compound, the Ki was 2.3 µM in experiment [3] and more than 400 µM in experiment [4].

For `OC[C@@H]1[C@@H](O)[C@@H](O)CN1Cc1cccc2nccnc12`, the result in the experiment on Leishmania infantum, with Plasmodium falciparum and in the experiment with Trypanosoma cruzi was inactive. Further, the IC50 in [2] is more than 64 µM. The results for the Ki in experiment [3] and in experiment [4] were 0.14 µM and more than 1000 µM, respectively.

In the case of `Nc1ncnc2c(CN3C[C@H](O)[C@H](O)[C@H]3CO)csc12`, the IC50 in experiment [1] and in experiment [2] was more than 64 µM each time. Further, the result with Leishmania infantum, with Plasmodium falciparum and in the experiment on Trypanosoma cruzi was inactive. Further, the Ki in experiment [11] came out at 125 µM; in experiment [3], 0.019 µM; in [4] it was 1000 µM; in experiment [5], 31 µM; in experiment [6], 0.056 µM; in experiment [7] it was 540 µM.

Take `OC[C@@H]1[C@@H](O)[C@@H](O)CN1Cc1cccc(-n2cccc2)c1`: the outcome with Leishmania infantum, in the experiment with Plasmodium falciparum and in the experiment with Trypanosoma cruzi was inactive. Moreover, the IC50 in experiment [2] came out at 29 µM. In addition, the Ki in [3] came out at 3.4 µM.

On to `OC[C@@H]1[C@@H](O)[C@@H](O)CN1Cc1c[nH]c2ccccc12`, for which the outcome in the experiment with Leishmania infantum, in the experiment on Plasmodium falciparum and with Trypanosoma cruzi was inactive. The IC50 in experiment [2] is more than 64 µM. In addition, the Ki is 12 µM in experiment [3] and more than 800 µM in experiment [4].
